Experimental data reported in ChEMBL document CHEMBL1121984 (J Med Chem, 1982).
Calls of active or inactive are those of the source. No cut-off for these calls is given here.

Legend:
Felis catus [1] = experiment: Inhibition of the positive chronotropic effect of stimulation of the cardioaccelerator nerve in the anesthetized cat.; assay type: functional, organism-based
Dopamine receptor [2] = target: T1, Dopamine receptor (Bos taurus, UniProt Q95136+P20288); experiment: Inhibitory binding activity against dopamine receptor using [3H]spiperone as the radioligand in striatal tissue of calf brain.; assay type: tissue-based, Striatum
Dopamine receptor [3] = target: T1, Dopamine receptor; experiment: Inhibitory binding activity against dopamine receptor using [3H]ADTN as the radioligand in striatal tissue of calf brain.; assay type: tissue-based, Striatum
Felis catus [4] = species on record: Felis catus; experiment: Inhibition of positive chronotropic effect of the cardioaccelerator was determined; assay type: functional; details: read-out: ID50 (the source's name)
[5] = The compound was tested for its emetic activity in dog, activity expressed as potency ratio.; assay type: functional
Felis catus [6] = species on record: Felis catus; experiment: The compound was evaluated for its ability to inhibit the positive chronotropic effect of the cardioaccelerator; assay type: functional; details: read-out: ID50 (the source's name)
Felis catus [7] = experiment: The compounds were evaluated for their ability to inhibit the positive chronotropic effect of stimulation of the cardioaccelerator nerve in the anesthetized cat; assay type: functional; details: read-out: ID50 (the source's name)
Dopamine receptor [8] = target: T1, Dopamine receptor; experiment: Inhibitory binding activity against dopamine receptor using [3H]ADTN as the radioligand in striatal tissue of calf brain; assay type: tissue-based, Striatum
Dopamine receptor [9] = target: T1, Dopamine receptor; experiment: Inhibitory binding activity against dopamine receptor using [3H]spiperone as the radioligand in striatal tissue of calf brain; assay type: tissue-based, Striatum
Canis familiaris = experiment: Effective dose for emetic activity after administration to dog; assay type: functional; details: Canis lupus familiaris

Compound	ID50 (Felis catus [1])	IC50 (Dopamine receptor [2])	other results
CCCNC1Cc2ccc(O)c(O)c2C1 (configuration not stated)	inactive	–	–
CC(C)N(C)C1Cc2cc(O)c(O)cc2C1	Increased heart rate at 3umol/kg	–	–
COc1cc2c(cc1OC)CC(NC(C)C)C2	inactive	–	–
COc1cc2c(cc1OC)CC(N(C)C(C)C)C2	inactive	–	–
Br.CCCN(CCC)C1Cc2cc(O)c(O)cc2C1	–	17.6 µM	IC50 (Dopamine receptor [3]): 412 µM; ED50 (Felis catus [4]): > 3 µmol/kg
Br.CN(C)C1Cc2cc(O)c(O)cc2C1	Increased heart rate	104 µM	IC50 (Dopamine receptor [3]): 6 µM
COc1ccc2c(c1OC)CC(NC(C)C)C2 (configuration not stated)	inactive	–	–
Br.CCN(CC)C1Cc2ccc(O)c(O)c2C1 (configuration not stated)	–	220 µM	Potency ratio [5]: 0.26; ED50 (Felis catus [6]): 0.05 µmol/kg; IC50 (Dopamine receptor [3]): 39 µM
CCCNC1Cc2ccc(OC)c(OC)c2C1.Cl (configuration not stated)	inactive	105 µM	IC50 (Dopamine receptor [3]): 51000 µM
CNC1Cc2cc(OC)c(OC)cc2C1	inactive	–	–
COc1cc2c(cc1OC)CC(N(C)C)C2.Cl	inactive	50 µM	IC50 (Dopamine receptor [3]): 400 µM
COc1cc2c(cc1OC)CC(N)C2	inactive	–	–
NCCc1ccc(O)c(O)c1 [DOPAMINE]	–	–	ED50 (Felis catus [4]): 0.105 µmol/kg
CCNC1Cc2ccc(O)c(O)c2C1 (configuration not stated)	–	–	ED50 (Felis catus [4]): > 1 µmol/kg
COc1ccc2c(c1OC)CC(N(C)C)C2 (configuration not stated)	inactive	100 µM	IC50 (Dopamine receptor [3]): 2300 µM
CCN(CC)C1Cc2cc(OC)c(OC)cc2C1	inactive	–	–

Compound	ID50 (Felis catus [1])	IC50 (Dopamine receptor [2])	other results
CN1C[C@H](CC#N)C[C@@H]2c3cccc4[nH]c(Cl)c(c34)C[C@H]21 [LERGOTRILE]	–	23.7 µM	ED50 (Felis catus [7]): 0.27 µmol/kg; IC50 (Dopamine receptor [3]): 4.5 µM
CC(C)NC1Cc2cc(O)c(O)cc2C1	Increased heart rate at 3umol/kg	–	–
Br.CCN(CC)C1Cc2ccc(OC)c(OC)c2C1 (configuration not stated)	inactive	29 µM	IC50 (Dopamine receptor [3]): 1660 µM
CNC1Cc2ccc(OC)c(OC)c2C1 (configuration not stated)	inactive	–	–
COc1ccc2c(c1OC)CC(N)C2 (configuration not stated)	inactive	–	–
CCCN(CCC)C1Cc2cc(OC)c(OC)cc2C1.Cl	inactive	10.4 µM	–
NC1Cc2ccc(O)c(O)c2C1 (configuration not stated)	Increased heart rate at 3umol/kg	–	–
Br.CCCN(CCC)C1Cc2ccc(O)c(O)c2C1 (configuration not stated)	–	53.86 µM	Potency ratio [5]: 1.24; ED50 (Felis catus [6]): 0.02 µmol/kg; IC50 (Dopamine receptor [3]): 10 µM
CNC1Cc2cc(O)c(O)cc2C1	Increased heart rate at 3umol/kg	–	–
CC(C)NC1Cc2ccc(O)c(O)c2C1 (configuration not stated)	inactive	–	–
CCNC1Cc2ccc(OC)c(OC)c2C1 (configuration not stated)	inactive	–	–
Br.CN(C)C1Cc2ccc(O)c(O)c2C1 (configuration not stated)	Increased heart rate	–	IC50 (Dopamine receptor [8]): 10 µM; IC50 (Dopamine receptor [9]): 91 µM
CN1CCc2cccc3c2[C@H]1Cc1ccc(O)c(O)c1-3 [APOMORPHINE]	–	–	ED50 (Canis familiaris): 0.07 mg/kg; ED50 (Felis catus [4]): 0.022 µmol/kg
NC1Cc2cc(O)c(O)cc2C1	Increased heart rate at 3umol/kg	–	–
Br.CCN(CC)C1Cc2cc(O)c(O)cc2C1	Increased heart rate	246 µM	–
CNC1Cc2ccc(O)c(O)c2C1 (configuration not stated)	Increased heart rate at 3umol/kg	–	–
